Activity calls are given as the source filed them. The calls are words filed in the database; no cut-off is given here.

A short description of series [1]: Clearance in human. Format: ADME, organism-based. As to conditions: in vivo.
Series [2] in a line: Volume of distribution in human. Format: ADME, organism-based. As to conditions: in vivo.
The nature of series [3]: Half life in human. Type of series: ADME, organism-based. The settings on record: in vivo.
The test system of series [4] is Mus musculus. The series is described as follows: Anticonvulsant activity in albino CF1 mouse assessed as protection against maximal electroshock-induced seizures at 100 mg/kg, ip after 0.5 hrs. Type of series: functional, organism-based. (The maximal electroshock test induces tonic seizures with an electrical stimulus.)
Series [5] concerns Mus musculus. The series is described as follows: Anticonvulsant activity in albino CF1 mouse assessed as protection against maximal electroshock-induced seizures at 30 mg/kg, ip after 2 hrs. Format: functional, organism-based.
In series [6] the test system is Mus musculus. The series can be described thus: Anticonvulsant activity in albino CF1 mouse assessed as protection against maximal electroshock-induced seizures at 100 mg/kg, ip after 2 hrs. Type of series: functional, organism-based.
Series [7] deals with Mus musculus. The series can be described thus: Anticonvulsant activity in albino CF1 mouse assessed as protection against 32 mA current-induced seizure at 30 mg/kg, ip after 2 hrs by 6 Hz psychomotor test. Type of series: functional, organism-based.
The subject of series [8] is Mus musculus. The series is described as follows: Anticonvulsant activity in albino CF1 mouse assessed as protection against 44 mA current-induced seizure at 100 mg/kg, ip after 0.25 hrs by 6 Hz psychomotor test. Type of series: functional, organism-based.
Series [9] concerns Mus musculus. The series is described as follows: Anticonvulsant activity in albino CF1 mouse assessed as protection against 44 mA current-induced seizure at 100 mg/kg, ip after 0.5 hrs by 6 Hz psychomotor test. Format: functional, organism-based.
The test system of series [10] is Mus musculus. The series can be described thus: Neurotoxicity in albino CF1 mouse assessed as behavioral impairment at 30 mg/kg, ip after 0.5 hrs by rotorod test. Type of series: toxicity, organism-based. As to conditions: in vivo. A general note: In the rotarod test animals must keep their balance on a rotating rod.
The test system of series [11] is Mus musculus. The series is described as follows: Neurotoxicity in albino CF1 mouse assessed as behavioral impairment at 100 mg/kg, ip after 0.5 hrs by rotorod test. Format: toxicity, organism-based. The settings on record: in vivo.
Series [12] has as its system Mus musculus. The series is described as follows: Neurotoxicity in albino CF1 mouse assessed as behavioral impairment at 300 mg/kg, ip after 0.5 hrs by rotorod test. Type of series: toxicity, organism-based. The settings on record: in vivo.
Series [13] concerns Mus musculus. The series is described as follows: Neurotoxicity in albino CF1 mouse assessed as behavioral impairment at 30 mg/kg, ip after 2 hrs by rotorod test. Format: toxicity, organism-based. As to conditions: in vivo.
Series [14] deals with Mus musculus. The series can be described thus: Neurotoxicity in albino CF1 mouse assessed as behavioral impairment at 100 mg/kg, ip after 2 hrs by rotorod test. Format: toxicity, organism-based. As to conditions: in vivo.
The subject of series [15] is Mus musculus. The series can be described thus: Neurotoxicity in albino CF1 mouse assessed as behavioral impairment at 300 mg/kg, ip after 2 hrs by rotorod test. Format: toxicity, organism-based. As to conditions: in vivo.
For series [16], the system named is Mus musculus. The series can be described thus: Neurotoxicity in albino CF1 mouse assessed as behavioral impairment at 100 mg/kg, ip after 0.25 hrs by rotorod test. Format: toxicity, organism-based. As to conditions: in vivo.
Series [17] concerns Mus musculus. The series can be described thus: Neurotoxicity in albino CF1 mouse assessed as behavioral impairment at 100 mg/kg, ip after 1 hr by rotorod test. Format: toxicity, organism-based. As to conditions: in vivo.
The subject of series [18] is Rattus norvegicus. The series is described as follows: Anticonvulsant activity in albino Sprague-Dawley rat assessed as protection against maximal electroshock-induced seizures at 30 mg/kg, po after 0.25 hrs. Type of series: functional, organism-based.
Series [19] has as its system Rattus norvegicus. The series is described as follows: Anticonvulsant activity in albino Sprague-Dawley rat assessed as protection against maximal electroshock-induced seizures at 30 mg/kg, ip after 0.5 hrs. Format: functional, organism-based.
The test system of series [20] is Rattus norvegicus. The series can be described thus: Neurotoxicity in albino Sprague-Dawley rat assessed as behavioral impairment at 30 mg/kg, ip after 0.25 hrs by rotorod test. Type of series: toxicity, organism-based. The settings on record: in vivo.
For series [21], the system named is Rattus norvegicus. The series is described as follows: Neurotoxicity in albino Sprague-Dawley rat assessed as behavioral impairment at 30 mg/kg, po after 0.25 hrs by rotorod test. As to conditions: in vivo. Format: toxicity, organism-based.
The subject of series [22] is Rattus norvegicus. The series can be described thus: Neurotoxicity in albino Sprague-Dawley rat assessed as behavioral impairment at 30 mg/kg, ip after 0.5 hrs by rotorod test. Type of series: toxicity, organism-based. As to conditions: in vivo.
In series [23] the test system is Rattus norvegicus. The series is described as follows: Neurotoxicity in albino Sprague-Dawley rat assessed as behavioral impairment at 30 mg/kg, po after 0.5 hrs by rotorod test. Type of series: toxicity, organism-based. As to conditions: in vivo.
Series [24] has as its system Rattus norvegicus. The series is described as follows: Neurotoxicity in albino Sprague-Dawley rat assessed as behavioral impairment at 30 mg/kg, ip after 1 hr by rotorod test. Format: toxicity, organism-based. The settings on record: in vivo.
Series [25] deals with Rattus norvegicus. The series is described as follows: Neurotoxicity in albino Sprague-Dawley rat assessed as behavioral impairment at 30 mg/kg, po after 1 hr by rotorod test. Type of series: toxicity, organism-based. The settings on record: in vivo.
For series [26], the system named is Rattus norvegicus. The series is described as follows: Neurotoxicity in albino Sprague-Dawley rat assessed as behavioral impairment at 30 mg/kg, ip after 2 hrs by rotorod test. Format: toxicity, organism-based. As to conditions: in vivo.
The subject of series [27] is Rattus norvegicus. The series can be described thus: Neurotoxicity in albino Sprague-Dawley rat assessed as behavioral impairment at 30 mg/kg, po after 2 hrs by rotorod test. Format: toxicity, organism-based. As to conditions: in vivo.
Series [28] relates to Mus musculus. The series is described as follows: Anticonvulsant activity in ip dosed albino CF1 mouse assessed as protection against maximal electroshock-induced seizures. Type of series: functional.
Series [29] in a line: Protective index, ratio of TD50 for neurotoxicity in ip dosed albino CF1 mouse to ED50 for anticonvulsant activity in ip dosed maximal electroshock-induced seizure albino CF1 mouse model. Type of series: toxicity, organism-based. As to conditions: in vivo, read-out: Ratio TD50/ED50.
Series [30] deals with Mus musculus. The series can be described thus: Anticonvulsant activity in ip dosed albino CF1 mouse assessed as protection against subcutaneous metrazol-induced seizures. Format: functional.
A short description of series [31]: Protective index, ratio of TD50 for neurotoxicity in ip dosed albino CF1 mouse to ED50 for anticonvulsant activity in ip dosed […] metrazol-induced seizure albino CF1 mouse model. As to conditions: in vivo, read-out: Ratio TD50/ED50. Format: toxicity, organism-based.
Series [32] deals with Mus musculus. The series can be described thus: Anticonvulsant activity in ip dosed albino CF1 mouse assessed as protection against maximal electroshock-induced seizures by measuring time to peak effect. Type of series: functional.
Series [33] has as its system Mus musculus. The series is described as follows: Anticonvulsant activity in ip dosed albino CF1 mouse assessed as protection against subcutaneous metrazol-induced seizures by measuring time to peak effect. Format: functional.
Series [34] deals with Mus musculus. The series can be described thus: Anticonvulsant activity in ip dosed albino CF1 mouse assessed as protection against 6 Hz current-induced seizures by psychomotor test. Format: functional.
Series [35] has as its system Mus musculus. The series is described as follows: Anticonvulsant activity in ip dosed albino CF1 mouse assessed as protection against 6 Hz current-induced seizure by measuring time to peak effect. Type of series: functional.
The nature of series [36]: Neurotoxicity in ip dosed albino CF1 mouse assessed as motor impairment by rotorod test. Type of series: toxicity, organism-based. The settings on record: in vivo.

The molecule `OC(Cn1ccnc1)c1ccc(CCc2ccccc2)cc1` (stereo unspecified) [DENZIMOL] showed a clearance in [1] of 5 mL/min/kg. This molecule also yielded a Vd in series [2] of 3 L/kg. In series [3], the half-life is 5 h.
`CCC(CC)COC(=O)NCCCn1ccnc1`: the outcome with Mus musculus [4], in the series on Mus musculus [6], with Mus musculus [8], in the series on Mus musculus [9] and in the series on Rattus norvegicus [19] was Active. Also, the outcome in the series on Mus musculus [5], with Mus musculus [7] and in the series on Rattus norvegicus [18] was inactive. Moreover, the Activity entry in the series on Mus musculus [10] is “Non-toxic”; in the series on Mus musculus [11], “Toxic”; in the series on Mus musculus [12], “Toxic”; in the series with Mus musculus [13], “Non-toxic”; in the series on Mus musculus [14], “Non-toxic”; in the series on Mus musculus [15], “Toxic”. Besides, the Activity entry in the series with Mus musculus [16] is reported as “Toxic”; in the series on Mus musculus [17] it was “Non-toxic”; in the series on Rattus norvegicus [20], “Non-toxic”; in the series with Rattus norvegicus [21], “Non-toxic”; in the series on Rattus norvegicus [22] it was “Non-toxic”; with Rattus norvegicus [23] it was “Non-toxic”. The Activity result in the series on Rattus norvegicus [24], in the series on Rattus norvegicus [25], in the series on Rattus norvegicus [26] and with Rattus norvegicus [27] was “Non-toxic” throughout. Moreover, the figures for the ED50 in the series with Mus musculus [28] and with Mus musculus [30] were 26 mg/kg and above 85 mg/kg, respectively. In addition, the values for the selectivity ratio in series [29] and in series [31] were 3.9 and 1.2, respectively. Further, the Time in the series on Mus musculus [32], in the series on Mus musculus [33] and in the series with Mus musculus [35] was 0.5 h each time. Besides, in the series on Mus musculus [34], the ED50 result was “inactive”. The TD50 in series [36] was 102 mg/kg.

For orientation: clearance means the rate of elimination divided by the concentration. A low value points to a low capacity for elimination. The term Vd denotes a proportionality between amount in the body and measured concentration, not a real space. The low end stands for little distribution into tissue, the high end for wide distribution into tissue. The half-life is the time in which the quantity being followed falls by half. The low end stands for fast loss, the high end for slow loss. In general, ED50 refers to the dose at which the effect has come halfway, by size or by number of responders. As usually defined, the TD50 is the dose at which the toxic effect under study appears in half of the subjects.

The values above are taken from ChEMBL document CHEMBL3826915, “Design and comparative anticonvulsant activity assessment of CNS-active alkyl-carbamoyl imidazole derivatives” (Bioorg Med Chem, 2016).
